# Assay results as given in US10766873B2, “Zuclopenthixol hydrochloride derivatives and Ebselen derivatives as ErbB2 inhibitors” (Centre National de la Recherche Scientifique (CNRS), priority 2016, dated 2020).
# Assays:
# BT474 = assay: MTT cell proliferation, BT474; format: cell-based, human
# Procedure: (§1) We then analyzed the ability of ZU and EB1 and their derivatives to decrease the ErbB2-dependent cell proliferation.
# (§2) SKBR3, BT474, MCF-7, MDA-MB-231 and HBMEC cells were treated with the compounds as indicated, and cell proliferation was determined each day during 3 days using an MTT assay. Non treated cells were included as a negative control.
# (§3) A solution of ZU in cis conformation was mixed to a solution of ZU in trans conformation (1:1) to obtain ZU in a 50/50 cis/trans conformation and their respective effects on ErbB2 activation and ErbB2-dependent cell proliferation were analyzed as previously by dot blot analysis using an anti-phosphotyrosine antibody (clone 4G10) and by MTT assays in the ErbB2-overexpressing breast cancer cell line SKBR3, BT474, or HBMEC as a control.
# SKBR3 [1] = assay: MTT cell proliferation, SKBR3; format: cell-based, human
# Procedure: as §1, §2, §3
# MCF7 = assay: MTT cell proliferation, MCF7; format: cell-based; conditions: 10 μM
# Procedure: as §1, §2
# SKBR3 [2] = assay: Soft agar colony formation, SKBR3; format: cell-based, human; conditions: 5 or 10 μM, 6 weeks
# Procedure: A bottom layer of 0.8% agarose in DMEM supplemented with 20% SVF and penicillin/streptomycin was added to 24 well plates before seeding 25.10^3 SKBR3 or BT474 cells/well in a 0.6% agarose top layer. Cells were left untreated or treated with 5 or 10 μM ZU or EB1 or 5 μM AG1478 (a non-specific ErbB2 kinase inhibitor) as a positive control. Treatments were renewed 3 times a week. After 6 weeks, the number of colonies and their size were quantified using image J software. The colony formation is illustrated for each condition. Data are presented as mean±SEM.
# [3] = tested on: V777L ErbB2-transfected cells; assay: MTT cell proliferation, V777L ErbB2-transfected HBMEC; format: cell-based; conditions: day 3
# Procedure: The WT, V777L or V842I ErbB2-transfected cells were treated with 5 or 10 μM of ZU and cell proliferation was determined each day during 3 days using an MTT assay. Non transfected cells were included as a negative control.
# The WT, V777L or V842I ErbB2-transfected cells were treated with 5 or 10 μM of EB1 and cell proliferation was determined each day during 3 days using an MTT assay. Non transfected cells were included as a negative control.
# MDA-MB-231 = assay: MTT cell proliferation, MDA-MB-231; format: cell-based; conditions: 10 μM
# Procedure: as §1, §2
# The ErbB2-overexpressing gastric cancer cell line N87 and MDAMB-231, a non ErbB2-overexpressing breast cancer cell line were treated with 3, 5 or 7 μM of ZU and cell proliferation was determined each day during 3 days using an MTT assay. Non treated cells were included as a negative control.
# The ErbB2-overexpressing ovarian cancer cell line SKOV3 and MDAMB-231, a non ErbB2-overexpressing breast cancer cell line were treated with 3, 5 or 7 μM of ZU and cell proliferation was determined each day during 3 days using an MTT assay. Non treated cells were included as a negative control.
# [4] = target: T1, FERM/ErbB2 interaction (Ezrin FERM domain / juxtamembrane ErbB2 peptide) (Homo sapiens, UniProt P04626); assay: AlphaScreen competition assay, FERM/ErbB2 interaction; format: binding; conditions: 1 h
# T1 construct: made in house
# Description: (§4) To validate that the Zuclopenthixol hydrochloride (ZU) and its derivatives interact with the juxtamembrane domain of ErbB2, we first analyzed in AlphaScreen® their efficiency to inhibit FERM/ErbB2 interaction in a dose-dependent manner and determined IC50 value. Furthermore, to test the selectivity of those compounds, we tested their ability to disrupt the interaction between the FERM domain and the known ERM binding motif contained in the juxtamembrane region of CD44 as a control.
# AlphaScreen® technology was used to assess the interaction between the Ezrin binding motif (EBM) contained in the juxtamembrane portions of ErbB2 or CD44 with the Ezrin FERM domain. For this purpose the Ezrin FERM domain in fusion with Glutathione-S-Transferase (GST) has been coupled to GSH-coated acceptor beads. […] The AlphaScreen® reagents (Glutathione-coated Acceptor beads and streptavidin-coated Donor beads) were obtained from PerkinElmer.
# The reaction was performed using white 384-well Optiplates (PerkinElmer, Whalham, Mass., USA) in 20 μl (total reaction volume) in a reaction buffer containing PBS, pH 7.4, 5 mM MgCl2 and 0.02% CHAPS. […] 10 μl of a mix solution containing 20 μg/ml Glutathione-coated Acceptor beads and 20 μg/ml streptavidin-coated Donor beads was then added to the wells and incubation was further proceeded for 40 min or overnight in the dark and at room temperature. Light signal was detected with the EnVision® multilabel plate reader (PerkinElmer). All experiments involving AlphaScreen® beads were performed under subdued lighting.
# FERM/CD44 interaction = target: T2, FERM/CD44 interaction (Homo sapiens, UniProt P16070); assay: AlphaScreen counter screen, FERM/CD44 interaction; format: binding; conditions: 1 h
# T2 construct: the juxtamembrane region of CD44 (biotin-[…]); made in house
# Description: as §4
# AlphaScreen® technology was used to assess the interaction between the Ezrin binding motif (EBM) contained in the juxtamembrane portions of ErbB2 or CD44 with the Ezrin FERM domain. For this purpose the Ezrin FERM domain in fusion with Glutathione-S-Transferase (GST) has been coupled to GSH-coated acceptor beads. Biotinylated ErbB2 peptide encoding the Ezrin binding motif (amino acid 674 to 689: biotin-[…], 26 aa) or the juxtamembrane region of CD44 (biotin-[…]), for the counter screen have been synthesized and coupled to streptavidin-covered donor beads. […]
# The reaction was performed using white 384-well Optiplates (PerkinElmer, Whalham, Mass., USA) in 20 μl (total reaction volume) in a reaction buffer containing PBS, pH 7.4, 5 mM MgCl2 and 0.02% CHAPS. […] Light signal was detected with the EnVision® multilabel plate reader (PerkinElmer). […]
smiles,measurement,setting,value
"O=C1c2ccccc2[Se](=O)N1c1ccccc1 (stereo not shown) [EB1, Ebselen oxide]",IC50,"BT474; Homo sapiens, BT-474",5.5 µM
same,EC50,"BT474; Homo sapiens, BT-474, 72 h, day 3, read-out: Cell proliferation at d 3 BT474 EC50",5.5 µM
same,"Cell proliferation at d 3 BT474 Max inhibition, %",BT474; day 3,100%
same,IC50,"SKBR3 [1]; Homo sapiens, SK-BR-3",7.5 µM
same,EC50,"SKBR3 [1]; Homo sapiens, SK-BR-3, 72 h, day 3, read-out: Cell proliferation at d 3 SKBR3 EC50",7.4 µM
same,"Cell proliferation at d 3 SKBR3 Max inhibition, %",SKBR3 [1]; day 3,96.7%
same,effect on MCF7 proliferation (in words),MCF7,without any effect
same,anchorage-independent growth of SKBR3 (in words),SKBR3 [2],inhibited the anchorage-independent growth
same,decrease of the proliferation of V777L transfected HBMEC,[3]; 5 μM,70%
same,decrease of the proliferation of V777L transfected HBMEC,[3]; 10 μM,85%
same,effect on MDA-MB-231 proliferation (in words),MDA-MB-231,without any effect
same,inhibition of FERM/ErbB2 interaction,[4],43%
same,effect on FERM/CD44 interaction,FERM/CD44 interaction,without significantly altering FERM/CD44 interaction at low doses
